ChEMBL document CHEMBL1201862, “PubChem BioAssay data set” (2004)
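Values below derive from 48-hour exposures of cells grown in 96-well plates, with endpoints linearly interpolated between the two concentrations bracketing the appropriate inhibition level. GI50 is the concentration that inhibits growth by half.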 The source made the active and inactive calls. No stated cut-off is given here; in the data, active = GI50 up to about 1.1 µM and inactive = higher.

Assays:
Assay in all cases: NCI anticancer screen, dose series, 48 h
[1] = system: SK-MEL-2
[2] = system: PC-3
[3] = system: K562
[4] = system: UACC-257
[5] = system: SNB-19
[6] = system: Hs-578T
[7] = system: HCC 2998
[8] = system: HOP-62
[9] = system: OVCAR-3
[10] = system: UO-31
[11] = system: OVCAR-4
[12] = system: M14
[13] = system: T47D
[14] = system: A498
[15] = system: MDA-MB-231
[16] = system: SF-539
[17] = system: SK-MEL-5
[18] = system: NCI/ADR-RES
[19] = system: UACC-62
[20] = system: LXFL 529

| SMILES | GI50 [1] | GI50 [2] | GI50 [3] | GI50 [4] | GI50 [5] | GI50 [6] | GI50 [7] | GI50 [8] | GI50 [9] | GI50 [10] | GI50 [11] | GI50 [12] | GI50 [13] | GI50 [14] | GI50 [15] | GI50 [16] | GI50 [17] | GI50 [18] | GI50 [19] | GI50 [20] |
| --- | --- | --- | --- | --- | --- | --- | --- | --- | --- | --- | --- | --- | --- | --- | --- | --- | --- | --- | --- | --- |
| OCCCc1cc(O)c2c(c1)C(CO)C(c1ccc(O)c(O)c1)O2 (stereo not drawn) | > 100 µM (inactive) | > 100 µM (inactive) | > 100 µM (inactive) | > 100 µM (inactive) | > 100 µM (inactive) | > 100 µM (inactive) | > 100 µM (inactive) | > 100 µM (inactive) | > 100 µM (inactive) | > 100 µM (inactive) | > 10 µM (inactive) | 76.6 µM (inactive) | 80.2 µM (inactive) | > 100 µM (inactive) | > 100 µM (inactive) | > 100 µM (inactive) | > 100 µM (inactive) | > 100 µM (inactive) | > 100 µM (inactive) | – |
| COc1cccc(C2c3cc4c(cc3OC(Nc3ccccc3)C2C)OCO4)c1O (stereo not drawn) | 13.9 µM (inactive) | 4.14 µM (inactive) | 2.83 µM (inactive) | 10.9 µM (inactive) | 15.2 µM (inactive) | 5.81 µM (inactive) | 11.7 µM (inactive) | 12.9 µM (inactive) | 9.18 µM (inactive) | 7.06 µM (inactive) | 36.3 µM (inactive) | 3.84 µM (inactive) | 12.7 µM (inactive) | 7.82 µM (inactive) | 12.7 µM (inactive) | 4.07 µM (inactive) | 5.12 µM (inactive) | 7.5 µM (inactive) | 9.02 µM (inactive) | – |
| CCCC1=C(CC)C(C(=O)Nc2c(C)cccc2C)=NC(S)N1 (stereo not drawn) | > 100 µM (inactive) | – | > 100 µM (inactive) | > 100 µM (inactive) | > 100 µM (inactive) | – | – | > 100 µM (inactive) | > 100 µM (inactive) | > 100 µM (inactive) | > 100 µM (inactive) | > 100 µM (inactive) | – | > 100 µM (inactive) | – | > 100 µM (inactive) | > 100 µM (inactive) | – | > 100 µM (inactive) | > 100 µM (inactive) |
| C=CCOC(=O)N1c2ccc(O[Si](C)(C)C(C)(C)C)cc2[C@@]23O[C@@]24[C@@H]1C#C/C=C\C#C[C@]3(O)C(OC)(OC)C[C@@H]4C | > 100 µM (inactive) | 4.54 µM (inactive) | 4.14 µM (inactive) | 19 µM (inactive) | > 74.6 µM (inactive) | 37.8 µM (inactive) | > 22.8 µM (inactive) | > 61.7 µM (inactive) | 5.55 µM (inactive) | 14.1 µM (inactive) | 48.6 µM (inactive) | > 65 µM (inactive) | 25.3 µM (inactive) | 1.31 µM (inactive) | > 100 µM (inactive) | > 29.2 µM (inactive) | 18.7 µM (inactive) | 41.6 µM (inactive) | 10.8 µM (inactive) | – |
| CSc1nnc(SCc2nn3c(=O)cc(C)nc3s2)s1 | > 100 µM (inactive) | > 100 µM (inactive) | > 100 µM (inactive) | > 100 µM (inactive) | > 100 µM (inactive) | > 100 µM (inactive) | > 100 µM (inactive) | > 100 µM (inactive) | > 100 µM (inactive) | > 100 µM (inactive) | 24.4 µM (inactive) | > 100 µM (inactive) | > 100 µM (inactive) | > 100 µM (inactive) | > 100 µM (inactive) | > 100 µM (inactive) | > 100 µM (inactive) | > 100 µM (inactive) | > 100 µM (inactive) | – |
| O=C(Nc1ccc(Nc2ccc3c(c2)C(=O)c2ccccc2C3=O)c2c1C(=O)c1ccccc1C2=O)c1ccccc1 | 11.9 µM (inactive) | 12.1 µM (inactive) | 7 µM (inactive) | > 100 µM (inactive) | > 80.5 µM (inactive) | 32.4 µM (inactive) | 6.84 µM (inactive) | 44.9 µM (inactive) | 16 µM (inactive) | > 100 µM (inactive) | > 100 µM (inactive) | > 91.8 µM (inactive) | 42.1 µM (inactive) | > 87.7 µM (inactive) | 46.6 µM (inactive) | > 23.7 µM (inactive) | > 42 µM (inactive) | 22 µM (inactive) | > 100 µM (inactive) | – |
| Cc1ccc2c(c1)C(C(=O)N[C@@H]1C(=O)N3[C@@H]1SC(C)(C)[C@@H]3C(=O)O)OCCC2 (stereo partly drawn) | > 100 µM (inactive) | > 100 µM (inactive) | > 100 µM (inactive) | > 100 µM (inactive) | > 100 µM (inactive) | > 100 µM (inactive) | > 100 µM (inactive) | > 100 µM (inactive) | 87.1 µM (inactive) | > 100 µM (inactive) | > 100 µM (inactive) | > 100 µM (inactive) | > 100 µM (inactive) | > 100 µM (inactive) | > 100 µM (inactive) | > 100 µM (inactive) | > 100 µM (inactive) | > 100 µM (inactive) | > 100 µM (inactive) | – |
| NC(CSc1nc2ccccn2c1[N+](=O)[O-])C(=O)O (stereo not drawn) | > 100 µM (inactive) | > 100 µM (inactive) | > 100 µM (inactive) | > 100 µM (inactive) | > 100 µM (inactive) | > 100 µM (inactive) | > 100 µM (inactive) | > 100 µM (inactive) | > 100 µM (inactive) | 2.49 µM (inactive) | > 100 µM (inactive) | > 100 µM (inactive) | > 100 µM (inactive) | > 100 µM (inactive) | > 100 µM (inactive) | > 100 µM (inactive) | > 100 µM (inactive) | > 100 µM (inactive) | > 100 µM (inactive) | – |
| CC(C)CCCC(C)[C@H]1CC[C@H]2n3c(nnc3-c3ccccc3)CCC[C@]12C (stereo partly drawn) | 12.4 µM (inactive) | 9.33 µM (inactive) | 3.8 µM (inactive) | 13.3 µM (inactive) | 11.8 µM (inactive) | 18.4 µM (inactive) | < 0.01 µM (active) | 16 µM (inactive) | 10.5 µM (inactive) | 10.4 µM (inactive) | 12.5 µM (inactive) | 12.8 µM (inactive) | 11.7 µM (inactive) | 14 µM (inactive) | 15 µM (inactive) | 11.9 µM (inactive) | 10.7 µM (inactive) | 9.93 µM (inactive) | 12.4 µM (inactive) | – |
| CCCCCCCCCCCCCCCCCc1nnc(N)o1 | > 100 µM (inactive) | – | > 100 µM (inactive) | > 100 µM (inactive) | > 100 µM (inactive) | – | > 100 µM (inactive) | > 100 µM (inactive) | > 100 µM (inactive) | > 100 µM (inactive) | > 100 µM (inactive) | > 100 µM (inactive) | – | – | – | > 100 µM (inactive) | – | – | > 100 µM (inactive) | > 100 µM (inactive) |
| COc1ccnc2c1C(=O)c1nc3ccccc3c3ccnc-2c13 | 0.789 µM (active) | 0.141 µM (active) | 0.163 µM (active) | 0.198 µM (active) | 0.182 µM (active) | 1.55 µM (inactive) | 0.0687 µM (active) | 0.125 µM (active) | 0.0353 µM (active) | 0.161 µM (active) | 0.307 µM (active) | 0.0418 µM (active) | 0.291 µM (active) | 0.0859 µM (active) | 0.21 µM (active) | 0.373 µM (active) | 0.0317 µM (active) | 0.0713 µM (active) | 0.136 µM (active) | – |
| S=C(N/N=C\C(=N/NC(=S)N1CCCCC1)c1ccccc1)N1CCCCC1 | 2.25 µM (inactive) | 1.92 µM (inactive) | 5.68 µM (inactive) | 2.14 µM (inactive) | 1.9 µM (inactive) | 1.82 µM (inactive) | 2.08 µM (inactive) | 2.43 µM (inactive) | 1.74 µM (inactive) | 1.74 µM (inactive) | 1.76 µM (inactive) | 1.92 µM (inactive) | 5.4 µM (inactive) | 1.78 µM (inactive) | 2.43 µM (inactive) | 2.36 µM (inactive) | 1.77 µM (inactive) | 2.31 µM (inactive) | 1.99 µM (inactive) | – |
| COc1cc2ccc3c4cc(OC)c(OC(C)C)cc4c[n+](C)c3c2cc1OC | 30.8 µM (inactive) | – | 22.7 µM (inactive) | 28.2 µM (inactive) | > 100 µM (inactive) | – | 44.5 µM (inactive) | > 100 µM (inactive) | 19.7 µM (inactive) | > 100 µM (inactive) | 64 µM (inactive) | 64.6 µM (inactive) | – | – | – | 40.4 µM (inactive) | 42 µM (inactive) | – | 55.2 µM (inactive) | 14.2 µM (inactive) |
| COc1cc(CC2c3cc(OC)c(OC)cc3CCN2C)c(Oc2cc3c(cc2OC)-c2c(O)c(OC)cc4c2C(C3)N(C)CC4)cc1OC (stereo not drawn) | 22.8 µM (inactive) | 23.3 µM (inactive) | 10.8 µM (inactive) | 14.5 µM (inactive) | 25.3 µM (inactive) | 18.2 µM (inactive) | 13.1 µM (inactive) | 23.7 µM (inactive) | 20.4 µM (inactive) | 18.5 µM (inactive) | 28.3 µM (inactive) | 5.04 µM (inactive) | 22.1 µM (inactive) | 22 µM (inactive) | 18.3 µM (inactive) | 14.1 µM (inactive) | 13.9 µM (inactive) | 20.6 µM (inactive) | 20.5 µM (inactive) | – |
| O=C(Nc1cccc(C(F)(F)F)c1)O/N=C(/Cl)CCl | 67.6 µM (inactive) | 96.6 µM (inactive) | 29.6 µM (inactive) | > 100 µM (inactive) | > 100 µM (inactive) | > 100 µM (inactive) | > 100 µM (inactive) | > 100 µM (inactive) | 38.9 µM (inactive) | > 100 µM (inactive) | 63.2 µM (inactive) | > 100 µM (inactive) | 53.5 µM (inactive) | > 100 µM (inactive) | 17.1 µM (inactive) | > 100 µM (inactive) | 40.7 µM (inactive) | > 100 µM (inactive) | – | – |
